Experimental data published in patent US20120302636A1, “METHOD OF TREATING A DISORDER ASSOCIATED WITH MTP” (priority 2009, published 2012).
Where two headings read alike, the source gives them in different places.

Key:
[1] = Example 7: ascending dose study in obese subjects, pharmacokinetics
Description: This example involved a clinical study of the compound of formula (I), which was a randomized, double-blind, placebo-controlled, ascending dose study to evaluate the safety, tolerability and pharmacokinetics/pharmacodynamics of the compound of formula (I) tablets administered twice daily for two weeks in obese subjects.
The subjects were separated into four arms of nine (one with ten) test subjects (which were administered the compound of formula (I)) and three placebo subjects.

[2] = in vivo
Description: This example involved a clinical study of the compound of formula (I), which was a randomized, double-blind, placebo-controlled, parallel group study to evaluate the efficacy of the compound of formula (I) administered twice daily for twelve weeks in obese subjects.

[3] = Example 6: pharmacokinetics; assay type: in vivo, human
Text: Originally, the study was planned as 4 sequential cohorts of healthy male Caucasian subjects (Cohorts 1 to 4) followed by a cohort of male Caucasian patients with elevated triglycerides (HTG patients, Cohort 5). An additional cohort of healthy male Caucasian subjects (Cohort 4.1) was enrolled into the study (6 cohorts in total). The cohorts were as follows: Cohorts 1 to 4.1 had healthy Caucasian males, aged 18-45 years with a body weight of 60-100 kg and body mass index (BMI) between 19-28 kg/m^2 at screening and fasting triglycerides less than 1.69 mmol/L (less than 150 mg/dL) at the screening visit and Day-3. Cohort 5 had Caucasian males, aged 18-50 years with a body weight of 60-115 kg and BMI less than 35 kg/m^2 at screening and with elevated fasting triglycerides (TG≧1.69 mmol/L and <5.62 mmol/L; ≧150 mg/dL and <500 mg/dL) at the screening visit and Day-3.
The planned treatment for Cohorts 1 to 4 was twice daily administration of 5 mg, 10 mg or 15 mg the compound of formula (I)/placebo, or once daily administration of 30 mg the compound of formula (1)/placebo. […] As only the compound of formula (I) 5 mg capsules were supplied for this study, doses were administered once daily to determine the maximum tolerated dose, and the planned doses for each subsequent cohort were amended based on the safety and tolerability data obtained from the preceding cohort. The dose level and dosing schedule planned for the patients in Cohort 5 was determined by the maximum tolerated dose and dosing schedule as reported from the planned Cohorts 1 to 4.1.
Twelve healthy male Caucasian subjects were enrolled in each of Cohorts 1 to 4.1; dose cohorts were randomized in a ratio 9:3 to receive the compound of formula (I) or placebo, respectively, at the dose level associated with that cohort. Twelve male Caucasian patients with elevated triglycerides were randomized in a ratio of 8:4 to receive the compound of formula (I) or placebo, respectively, at the maximum tolerated dose level and dosing schedule.

[4] = Example 3: pharmacokinetics; assay type: in vivo, human; conditions: both active groups
MTP = MTP (Homo sapiens, UniProt P55157)
MTP, sequence (P55157 19-894, species assumed): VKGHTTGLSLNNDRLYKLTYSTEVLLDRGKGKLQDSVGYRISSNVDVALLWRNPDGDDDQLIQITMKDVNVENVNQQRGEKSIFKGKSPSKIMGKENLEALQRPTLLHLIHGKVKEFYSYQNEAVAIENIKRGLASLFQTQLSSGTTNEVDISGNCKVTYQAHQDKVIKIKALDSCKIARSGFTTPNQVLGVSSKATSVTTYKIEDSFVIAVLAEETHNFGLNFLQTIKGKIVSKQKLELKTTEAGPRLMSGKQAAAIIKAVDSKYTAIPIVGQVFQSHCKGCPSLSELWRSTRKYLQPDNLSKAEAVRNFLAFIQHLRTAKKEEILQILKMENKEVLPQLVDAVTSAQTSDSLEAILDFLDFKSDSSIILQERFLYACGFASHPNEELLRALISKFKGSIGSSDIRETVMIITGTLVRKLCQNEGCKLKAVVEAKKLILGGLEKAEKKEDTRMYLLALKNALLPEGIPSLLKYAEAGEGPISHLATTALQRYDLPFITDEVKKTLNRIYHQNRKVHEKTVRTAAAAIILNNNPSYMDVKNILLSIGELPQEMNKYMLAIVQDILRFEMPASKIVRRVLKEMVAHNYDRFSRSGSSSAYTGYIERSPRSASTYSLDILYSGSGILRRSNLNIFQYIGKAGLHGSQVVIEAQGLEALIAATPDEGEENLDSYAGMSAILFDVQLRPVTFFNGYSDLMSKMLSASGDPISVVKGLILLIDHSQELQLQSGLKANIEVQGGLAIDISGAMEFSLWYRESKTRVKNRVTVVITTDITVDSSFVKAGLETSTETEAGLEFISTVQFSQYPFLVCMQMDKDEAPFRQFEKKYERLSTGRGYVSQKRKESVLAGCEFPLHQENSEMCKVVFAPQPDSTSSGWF
MTP, sequence (P07237 18-508 partner, species assumed): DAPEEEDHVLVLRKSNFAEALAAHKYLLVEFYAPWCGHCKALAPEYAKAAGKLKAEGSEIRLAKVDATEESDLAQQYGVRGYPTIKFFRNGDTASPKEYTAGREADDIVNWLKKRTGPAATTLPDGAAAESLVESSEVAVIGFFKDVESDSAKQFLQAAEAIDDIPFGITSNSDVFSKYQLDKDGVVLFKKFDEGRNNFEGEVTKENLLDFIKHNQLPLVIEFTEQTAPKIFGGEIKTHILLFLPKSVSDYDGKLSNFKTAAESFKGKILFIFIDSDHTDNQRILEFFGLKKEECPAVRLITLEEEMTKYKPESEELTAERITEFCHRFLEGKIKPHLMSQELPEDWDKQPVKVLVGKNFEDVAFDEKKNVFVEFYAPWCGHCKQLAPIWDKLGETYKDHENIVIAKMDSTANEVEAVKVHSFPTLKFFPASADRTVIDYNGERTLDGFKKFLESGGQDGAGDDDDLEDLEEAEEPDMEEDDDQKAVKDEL

[5] = Example 2: plasma and urine pharmacokinetics; assay type: in vivo, human
Description: Each tablet contained 5 mg (BID), 10 mg (QD), 20 mg (QD), or 30 mg (QD).

[6] = Example 1: plasma and urine concentrations by LC/MS/MS
[7] = Example 5: pharmacokinetics; assay type: in vivo, human
Description: Fifty-two Japanese patients with hyperlipidemia (LDL-C between 140 and 220 mg/dL; TG≦400 mg/dL) participated in the study. […] One group received a fixed dose of 2 mg per tablet through the entire study. The other group received escalating doses of 0.5 mg (weeks 1-4), 1 mg (weeks 5-8), and 2 mg (weeks 9-12). For the efficacy analysis, 50 subjects were observed (25 in the fixed-dose group and 25 in the dose escalation group).
The objective of this study was preliminary evaluation of the efficacy (based on serum lipid levels), safety, and pharmacokinetics of the compound of formula (I) administered orally twice daily after breakfast and supper for 12 weeks as a fixed dose (4 mg/day) or escalating dose (1 mg/day, 2 mg/day and 4 mg/day) regimen in patients with hyperlipidemia.

With `CN(C)C(=O)c1cc(CC(=O)O)ccc1NC(=O)c1ccccc1-c1ccc(C(F)(F)F)cc1` [metabolite M1, 2-(3-(dimethylcarbamoyl)-4-(4′-(trifluoromethyl)biphenyl-2-ylcarboxamido)phenyl)acetic acid] the “mean t1/2” value ([1]; 1 mg group) was 70.1 h, the “time to reach steady-state” value ([1]; 1 and 2.5 mg groups) was 7 days and the “Cmax and AUC0-τ dose proportionality (M1)” value ([1]; 1 to 5 mg) was “dose proportional increase”. For the same compound, the “time to reach steady-state” value ([1]; 3.5 and 5 mg groups) was 5 days, the “mean trough concentration of M1” value [2] was “increased in a dose-related manner” and the “mean apparent terminal half-life” value ([3]; 5 mg BID, healthy) was “approximately 27 h”. For the same compound, the “systemic availability (AUC0-τ and Cmax) in patients vs subjects with normal triglycerides” value ([3]; 5 mg, Cohort 5 vs Cohort 1) was “appeared to be greater”, the “mean apparent terminal half-life” value ([3]; 5 mg, HTG patients) was “approximately 30 h” and the time to steady-state ([3]; 5 to 20 mg QD and BID, healthy subjects and patients) was ~8 days. For the same compound, the “extent of systemic exposure, dose proportionality” value ([3]; 5 to 20 mg QD, healthy) was “greater than dose-proportional”, the “urinary recovery up to 72 h post-last dose” value ([3]; 14 days administration, adjusted for molecular weight) was “up to 20 % of the total administered dose” and the urinary recovery ([3]; first administration) was “less than 8 % of the administered dose”. For the same compound, the “plasma metabolite M1” value [4] was “quantifiable”, the MTP inhibitory activity (MTP) was “no MTP inhibitory activity” and the MTP inhibitory activity (MTP; listed as M1) was “inactive”. The “Cmax and AUC0-24hr dose proportionality (M1)” value ([5]; 10, 20, 30 mg QD, initial dose Day 1) was “greater than a dose-proportional”, the “Cmin of the metabolite M1” value ([5]; Day 2 to 14, all groups) was “quantifiable” and the “plasma metabolite M1” value ([5]; after initial dose on Day 1, all groups) was “quantifiable”. The “metabolite M1 in urine” value ([5]; all groups) was “excreted in urine”, the “Cmax and AUC dose proportionality (M1)” value ([5]; final dose on Day 14) was “dose-proportional” and the “mean Cmin” value ([6]; 5 mg group, Day 2) was 8.33 ng/mL. For the same compound, the “mean Cmin” value ([6]; 5 mg group, Day 6) was 25.97 ng/mL, the “mean Cmin relative to Day 2” value ([6]; 5 mg group, Day 6) was 3.12 times and the “mean Cmin” value ([6]; 15 mg group, Day 2) was 33.57 ng/mL. For the same compound, the “mean Cmin” value ([6]; 15 mg group, Day 8) was 181.90 ng/mL, the “mean Cmin relative to Day 2” value ([6]; 15 mg group, Day 8) was 5.42 times and the “excretion in urine (metabolite)” value ([6]; 5 and 15 mg groups) was “excreted in urine in all subjects”. For the same compound, the “detection of metabolite in plasma” value ([6]; all subjects receiving compound) was “detected in plasma of all subjects”, the “mean Cmin” value ([7]; dose escalation group, Week 10) was 12.15 ng/mL and the “mean Cmin” value ([7]; dose escalation group, Week 10, females) was 12.06 ng/mL. For the same compound, the “mean Cmin” value ([7]; dose escalation group, Week 10, males) was 12.28 ng/mL, the “mean Cmin” value ([7]; dose escalation group, Week 12) was 13.47 ng/mL and the “mean Cmin” value ([7]; dose escalation group, Week 12, females) was 15.28 ng/mL. The “mean Cmin” value ([7]; dose escalation group, Week 12, males) was 10.76 ng/mL, the “mean Cmin” value ([7]; fixed-dose group, Week 10) was 12.20 ng/mL and the “mean Cmin” value ([7]; fixed-dose group, Week 12) was 10.74 ng/mL.
